Results published in US20220372014A1, “NEUROPROTECTIVE COMPOUNDS AND METHODS OF USE THEREOF” (The Johns Hopkins University, priority 2019, published 2022).
pIC50: −log10 of the molar value. Entries after “also recorded” stand apart in the source; their conditions may differ.

How the values were obtained:
SH-SY5Y cells = experiment: MNNG-induced parthanatic cell death in SH-SY5Y cells (Alamar blue cell viability); type: cell-based; settings: for inhibition of MNNG-induced parthanatic cell death: 50 μM MNNG for 15 min, viability after 24 h; for pIC50: Homo sapiens, SH-SY5Y, read-out: IC50, MNNG-induced parthanatic cell death
Excerpt: We developed an assay to screen for PAAN/MIF nuclease inhibitors. Single-stranded PAAN/MIF nuclease DNA substrate (FIG. 10A) was amine modified on the 5′ end and immobilized on a plate. Hybridization with a biotin-labeled complementary oligonucleotide followed by addition of streptavidin conjugated horseradish peroxidase enzyme (HRP) leads to retention of HRP on the surface within each well in the presence of intact PAAN/MIF nuclease DNA substrate, which can be quantitatively detected through colorimetric change at 450 nm using the HRP substrate 3,3′,5,5′-tetramethylbenzidine (TMB). In the presence of WT PAAN/MIF, there is reduced signal, indicative of cleavage of the PAAN/MIF nuclease substrate, while the signal is not attenuated without recombinant PAAN/MIF (FIGS. 1 and 10B). […] Thus, the rapafucin library containing 45,000 macrocyclic compounds in 3,000 pools of 15 compounds was screened using this assay. […] Several pools were identified that inhibit PAAN/MIF nuclease activity from the primary screen (FIG. 4A). […] Nine pools of compounds were identified that both inhibit PAAN/MIF cleavage of the substrate and protect against MNNG-induced parthanatic cell death by greater than 70% (FIG. 10D). […] Next, the 90 individual compounds in the 6 pools were synthesized and further assessed for inhibition of PAAN/MIF nuclease activity and MNNG-induced parthanatic cell death. Among them 12 compounds (compounds 16-18, 26-28, 41, 56, 66, 67, 76, and 77) were identified that block MIF nuclease activity and MNNG-induced parthanatic cell death by greater than 60% (FIG. 10F). Dose dependence (0.1 to 1.0 μM) were assessed for the 12 compounds against MNNG-induced parthanatic cell death (FIG. 11A and Table 2) and inhibition of PAAN MIF nuclease activity against the RF (FIG. 111B) and PS30 substrates (FIG. 11C).
Cell culture, transfection, primary neuronal culture and treatment. SH-SY5Y cells (ATCC) were cultured in DMEM containing 10% fetal bovine serum and penicillin/streptomycin at 37° C. under 5% C02. The cells were transfected using PolyFect reagent (Qiagen). Parthanatos was induced by the treatment of 50 μM MNNG for 15 min in SH-SY5Y cells. ABT-888 or PAAN/MIF inhibitors were pretreated with indicated concentration 1 h before MNNG treatment and cell death were assessed after 24 h. Primary cortical neurons from WT, PAAN/MIF KO, E22Q KI or P1G KI embryos were prepared as previously described See Kam et al. (2018) Science 362:eaat8407. Briefly, the cortex was dissected and cultured at embryonic day 16 in neurobasal media supplemented with B-27, 0.5 mM L-glutamine, penicillin and streptomycin (Invitrogen). Primary neurons were infected with AAV2-control, AAV2-PAAN/MIF WT, AAV2-PAAN/MIF E22Q, AAV2-PAAN/MIF E22A or AAV2-MIF P1G (ViGene Biosciences) at days in vitro (DIV) 4-5. ABT-888 or PAAN/MIF inhibitors were applied to neurons 1 h before α-syn PFF treatment. The neuron growth medium was replaced with fresh medium alone or including inhibitors every 3-4 days. α-syn PFF was added at DIV 7 and further incubated for indicated times followed by the cell death assay or biochemical experiments.
Cell death and viability assessment. Primary cultured cortical neurons were treated with 5 μg/ml of α-syn PFF for 14 days and cell death was determined by staining of all nuclei with 7 μM Hoechst 33342 and dead cell nuclei with 2 μM propidium iodide (PI) (Invitrogen). The numbers of total and dead cells were counted with the Axiovision 4.6 software (Carl Zeiss). Cell viability was determined by fluorescence at an excitation wavelength 570 nm and an emission wavelength 585 nm using Alamar Blue (Invitrogen). […]

PAAN/MIF = target: T1, PAAN/MIF (Homo sapiens, UniProt P14174); experiment: In vitro PAAN/MIF nuclease assay (PS30 or RF substrate, PAGE gel, noncleaved substrate DNA); type: biochemical; settings: RF and PS30 substrates
T1 construct: GST (N, cleaved yes); made in house; host or cells: Escherichia coli
T1 sequence (P14174 1-115): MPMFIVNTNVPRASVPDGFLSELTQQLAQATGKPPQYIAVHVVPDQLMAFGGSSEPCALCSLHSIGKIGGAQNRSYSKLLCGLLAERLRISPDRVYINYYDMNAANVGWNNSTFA
Protocol: Nuclease assay. Purified PAAN/MIF protein (4 μM) was incubated with compounds (10 μM) in the nuclease buffer [10 mM Tris-C1 (pH 7.0) and 10 mM MgCl2] for 20 m on ice. Then samples were added with 1 μM of PAAN/MIF substrate (PS30 or RF) and incubated for 1 h at 37° C. The reaction was terminated with loading buffer containing 10 mM EDTA and separated on 15% TBE-urea polyacrylamide (PAGE) gel or 20% TBE PAGE gel.
Purification of PAAN/MIF recombinant proteins. Human PAAN/MIF (NM_002415) cDNA and its variants were subcloned into pGEX-6β-1 vector (GE Healthcare) and mutants were generated using a QuikChange site-directed mutagenesis kit (Stratagene). The sequences were confirmed by automated DNA sequencing. The protein was expressed and purified from Escherichia coli by glutathione sepharose (GE Healthcare). The GST tag was subsequently proteolytically removed. GST protein was used as a negative control in the nuclease assay and PAAN/MIF proteins purified by FPLC using Superdex 200 10/300GL column (GE Healthcare, Life Sciences) were also used in the nuclease assays.

Compound	inhibition of MNNG-induced parthanatic cell death (SH-SY5Y cells)	inhibition of PAAN/MIF nuclease activity (PAAN/MIF)	pIC50 (SH-SY5Y cells)	protection against MNNG-induced parthanatic cell death in PAAN/MIF mutant cells (SH-SY5Y cells; PAAN/MIF KO SH-SY5Y cells expressing L61A, 60-63A or N72A, 1 μM)
COc1ccc(CC[C@H]2OC(=O)[C@@H]3CCCCN3C(=O)C(=O)C(C)(C)COC(=O)C=CCCN(C)C(=O)CNC(=O)[C@H](C(C)C)N(C)C(=O)[C@@H](Cc3ccccc3)NC(=O)[C@H](CC(C)C)N(C)C(=O)CCC(=O)Nc3cccc2c3)cc1OC [compound 76]	prominently blocked	prominently blocked	–	–
COc1ccc(CC[C@H]2OC(=O)[C@@H]3CCCCN3C(=O)C(=O)C(C)(C)COC(=O)C=CCCN(C)C(=O)[C@@H]3CCCN3C(=O)[C@H](COC(C)(C)C)N(C)C(=O)C(c3ccccc3)NC(=O)[C@H](C)N(C)C(=O)COc3cccc2c3)cc1OC (stereo partly drawn) [compound 56]	prominently blocked	prominently blocked; also recorded: inhibited	6.28	–
COc1ccc(CC[C@H]2OC(=O)[C@@H]3CCCCN3C(=O)C(=O)C(C)(C)COC(=O)C=CCCN(C)C(=O)[C@@H]3CCCN3C(=O)[C@H](COC(C)(C)C)N(C)C(=O)C(c3ccccc3)NC(=O)CN(C)C(=O)COc3cccc2c3)cc1OC (stereo partly drawn) [compound 41]	prominently blocked	prominently blocked	–	–
COc1ccc(CC[C@H]2OC(=O)[C@@H]3CCCCN3C(=O)C(=O)C(C)(C)COC(=O)C=CCCN(C)C(=O)[C@@H]3CCCN3C(=O)[C@H](COC(C)(C)C)N(C)C(=O)C(c3ccccc3)NC(=O)[C@H](C)N(C)C(=O)COc3cc(F)cc2c3)cc1OC (mixture of isomers) [compound 121]	blocked	inhibited	6.55	significantly reduced
COc1ccc(CC[C@H]2OC(=O)[C@@H]3CCCCN3C(=O)C(=O)C(C)(C)COC(=O)C=CCCN(C)C(=O)[C@@H]3CCCN3C(=O)[C@H](CO)N(C)C(=O)C(c3ccccc3)NC(=O)[C@H](C)N(C)C(=O)COc3cccc2c3)cc1OC (stereo partly drawn) [compound 97]	has no effect	has no effect	–	–
COc1ccc(CC[C@H]2OC(=O)[C@@H]3CCCCN3C(=O)C(=O)C(C)(C)COC(=O)C=CCCN(C)C(=O)[C@H](C)NC(=O)[C@H](C(C)C)N(C)C(=O)[C@@H](Cc3ccccc3)NC(=O)[C@H](CC(C)C)N(C)C(=O)CCC(=O)Nc3cccc2c3)cc1OC [compound 77]	prominently blocked	prominently blocked	–	–
